For one experiment, the target named is T1, WEE1 kinase (Homo sapiens, UniProt P30291).
T1 construct: purchased Carna bioscience
The experiment in a line: WEE1 kinase binding assay (LanthaScreen EU). The note with it: WEE1 kinase 20 nM, Kinase Tracer 178 100 nM, 23° C. for 60 min, read-out: WEEI (IC50). As for the experimental part:
1. Assay for WEE1 Kinase Inhibitory Activity (IC50) on Compounds
The WEE1 kinase binding assay was established and optimized with LanthaScreen EU for the determination of the activity of compounds. 10 mM compounds were subjected to ten-fold gradient dilution in 100% DMSO (6 concentrations in total), 5 μL of diluent from each concentration was added to 45 μL of reaction buffer (50 mM HEPES (4-hydroxyethylpiperazine ethanesulfonic acid), pH 7.5, 10 mM MgCl2 (magnesium chloride), 1 mM EGTA (ethylene glycol diethyl ether diamine tetraacetic acid), 0.01% Brij-35 (polyoxyethylene lauryl ether)) for blending. On this basis, 2 μL diluent from each concentration was added to 48 μL of reaction buffer for blending as a 4*compound (final concentrations of 1000, 100, 10, 1, 0.1, 0 nM) for later use. Reaction buffer was used to formulate 4*WEE1 kinase (purchased from Carna bioscience, a final concentration of 20 nM), 4*LanthaScreen EU-anti-GST Antibody (purchased from Invitrogen, PV5594, a fuel concentration of 2 nM), and 4*Kinase Tracer 178 (purchased from Invitrogen, PV5593, a final concentration of 100 nM). 2.5 μL of 4*compound was added to a 384-well plate (OptiPlate-384, purchased from PerkinElmer), followed by adding 2.5 μL of 4*WEE1 kinase, standing for 5 min at room temperature. Then 2.5 μL of 4*LanthaScreen EU-anti-GST Antibody was added followed by 2.5 μL of 4*Kinase Tracer 178. The reaction was started by centrifugation (a total reaction volume of 10 μL). The 384-well plate was wrapped with tin foil paper and placed in an incubator at 23° C. for 60 min. Fluorescence values (excitation at 320 nm, detecting emitted light at 665 nm and 615 nm, and a ratio of the two as enzyme activity) were read on Envision (purchased from PerkinElmer). The enzyme activity of each compound was measured at 6 concentrations, and the IC50 value of the compound was calculated using GraFit6.0 software (Erithacus Software).
The aforementioned “*” refers to multiplying, representing multiples.

For experiment [1], the system named is Human non-small cell lung cancer cells NCI-H1299. As to the kind of experiment: NCI-H1299 cell proliferation inhibition (CellTiter-Glo). The conditions noted are these: cultured 3 days, table head NCI-H1975, method NCI-H1299. In kind it is cell-based. As to the method:
2. Determination of Cell Proliferation Activity of Compounds:
NCI-H1299 cell proliferation inhibition screening method was established using CellTiter-fib detection reagent from Promega.
Human non-small cell lung cancer cells NCI-H1299 were cultured in 25 cm^2 or 75 cm^2 plastic tissue culture flasks (Corning) filled with DMEM (Gibco) medium supplemented with 10% fetal bovine serum (Hyclone) under 37° C., 95% air, and 5% CO2, and subcultured 2-3 times a week.
Cells were seeded at 1000 cells/well in a 96-well cell culture plate (Corning), 195 μL/well, and cultured under 37° C., 95% air, and 5% CO2. The next day test compound was added: 10 mM compounds (dissolved in DMSO) were subjected to 3-fold gradient dilution in DMSO, 2 μL of diluent from each concentration was added to 48 μL of serum-fret medium, and finally 5 μL of the diluted compound was added to the plate seeded with cells. The final concentration of DMSO in the cell culture was 0.1% and the foul concentration of the test compound was 0.3 nM-10 μM. The cells were cultured at 37° C. for 3 days.

pIC50: −log10 of the molar value.

T1 sequence (P30291 whole entry): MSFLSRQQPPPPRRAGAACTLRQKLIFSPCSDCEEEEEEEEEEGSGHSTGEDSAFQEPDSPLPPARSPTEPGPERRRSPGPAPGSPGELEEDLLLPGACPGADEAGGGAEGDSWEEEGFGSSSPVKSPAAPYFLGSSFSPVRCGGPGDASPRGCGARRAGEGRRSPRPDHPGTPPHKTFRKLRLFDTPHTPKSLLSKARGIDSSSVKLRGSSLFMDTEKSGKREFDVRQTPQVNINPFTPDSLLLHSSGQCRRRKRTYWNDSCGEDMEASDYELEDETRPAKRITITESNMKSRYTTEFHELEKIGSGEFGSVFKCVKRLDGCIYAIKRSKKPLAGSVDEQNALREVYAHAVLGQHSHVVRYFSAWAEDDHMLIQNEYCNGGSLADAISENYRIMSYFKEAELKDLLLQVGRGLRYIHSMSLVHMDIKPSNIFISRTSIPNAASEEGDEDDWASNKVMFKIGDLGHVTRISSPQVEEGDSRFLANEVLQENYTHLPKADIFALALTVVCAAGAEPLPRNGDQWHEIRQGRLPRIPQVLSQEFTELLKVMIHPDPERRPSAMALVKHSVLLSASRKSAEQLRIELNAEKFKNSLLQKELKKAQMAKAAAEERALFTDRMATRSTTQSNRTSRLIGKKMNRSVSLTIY

For the molecule `CN1CCN(C2CCN(c3ccc(Nc4ncc5c(F)c(C6CC6)n(-c6cccc(N=S(C)(C)=O)n6)c5n4)cc3F)CC2)CC1` [Example 47, ((6-(5-fluoro-2-((3-fluoro-4-(4-(4-methylpiperazin-1-yl)piperidin-1-yl)phenyl)amino)-6-cyclopropyl-7H-pyrrolo[2,3-d]pyrimidin-7-yl)pyridin-2-yl)imino)dimethyl-λ^6-sulfanone], the pIC50 was 9.01 at WEE1 kinase and 7.20 in experiment [1] (Homo sapiens, 72 h).

Regarding `CN1CCN(C2CCN(c3ccc(Nc4ncc5cc(C6CC6)n(-c6cccc(N=S(C)(C)=O)n6)c5n4)cc3F)CC2)CC1` [Example 48, ((6-(2-((3-fluoro-4-(4-(4-methylpiperazin-1-yl)piperidin-1-yl)phenyl)amino)-6-cyclopropyl-7H-pyrrolo[2,3-d]pyrimidin-7-yl)pyridin-2-yl)imino)dimethyl-λ^6-sulfanone], the pIC50 at WEE1 kinase was 9.10; in experiment [1] (Homo sapiens, 72 h), 7.38.

As to `Cc1cc(Nc2ncc3cc(C4CC4)n(-c4cccc(N=S(C)(C)=O)n4)c3n2)ccc1N1CCC(N2CCN(C)CC2)CC1` [Example 52, ((6-(2-((3-methyl-4-(4-(4-methylpiperazin-1-yl)piperidin-1-yl)phenyl)amino)-6-cyclopropyl-7H-pyrrolo[2,3-d]pyrimidin-7-yl)pyridin-2-yl)imino)dimethyl-λ^6-sulfanone], the pIC50 is 9.20 on WEE1 kinase and 7.25 in experiment [1] (Homo sapiens, 72 h).

On to `CN1[C@@H]2CC[C@H]1CN(c1ccc(Nc3ncc4cc(C5CC5)n(-c5cccc(N=S(C)(C)=O)n5)c4n3)cc1)C2` [Example 81, ((6-(6-cyclopropyl-2-((4-((1R,5S)-8-methyl-3,8-diazabicyclo[3.2.1]octan-3-yl)phenyl)amino)-7H-pyrrolo[2,3-d]pyrimidin-7-yl)pyridin-2-yl)imino)dimethyl-λ^6-sulfanone], for which the pIC50 at WEE1 kinase was 9.48; in experiment [1] (Homo sapiens, 72 h), 7.42.

For `CN1[C@@H]2CC[C@H]1CN(c1ccc(Nc3ncc4c(F)c(C5CC5)n(-c5cccc(N=S(C)(C)=O)n5)c4n3)cc1)C2` [Example 82, ((6-(6-cyclopropyl-5-fluoro-2-((4-((1R,5S)-8-methyl-3,8-diazabicyclo[3.2.1]octan-3-yl)phenyl)amino)-7H-pyrrolo[2,3-d]pyrimidin-7-yl)pyridin-2-yl)imino)dimethyl-Ab-sulfanone], the pIC50 at WEE1 kinase was 9.24; in experiment [1] (Homo sapiens, 72 h), 7.19.

On to `CN1CC2(CCN(c3ccc(Nc4ncc5cc(C6CC6)n(-c6cccc(N=S(C)(C)=O)n6)c5n4)cc3)CC2)C1` [Example 85, ((6-(6-cyclopropyl-2-((4-(2-methyl-2,7-diazaspiro[3.5]nonan-7-yl)phenyl)amino)-7H-pyrrolo[2,3-d]pyrimidin-7-yl)pyridin-2-yl)imino)dimethyl-λ^6-sulfanone], for which the pIC50 at WEE1 kinase is 9.07; in experiment [1] (Homo sapiens, 72 h), 7.10.

As for `CN1CC2(CCN(c3ccc(Nc4ncc5c(F)c(C6CC6)n(-c6cccc(N=S(C)(C)=O)n6)c5n4)cc3)CC2)C1` [Example 86, ((6-(6-cyclopropyl-5-fluoro-2-((4-(2-methyl-2,7-diazaspiro[3.5]nonan-7-yl)phenyl)amino)-7H-pyrrolo[2,3-d]pyrimidin-7-yl)pyridin-2-yl)imino)dimethyl-λ^6-sulfanone], the pIC50 at WEE1 kinase was 9.27; in experiment [1] (Homo sapiens, 72 h) it was 7.22.

On to `COc1cc(Nc2ncc3cc(C4CC4)n(-c4cccc(N=S(C)(C)=O)n4)c3n2)ccc1N1CCC(N2CCN(C)CC2)CC1` [Example 87, ((6-(6-cyclopropyl-2-((3-methoxy-4-(4-(4-methylpiperazin-1-yl)piperidin-1-yl)phenyl)amino)-7H-pyrrolo[2,3-d]pyrimidin-7-yl)pyridin-2-yl)imino)dimethyl-λ^6-sulfanone], for which the pIC50 on WEE1 kinase is 9.01; in experiment [1] (Homo sapiens, 72 h), 7.05.

As for `CC1(O)CN(N2CCN(c3ccc(Nc4ncc5cc(C6CC6)n(-c6cccc(N=S(C)(C)=O)n6)c5n4)cc3)CC2)C1` [Example 98, ((6-(6-cyclopropyl-2-((4-(4-(3-hydroxy-3-methylazetidin-1-yl)piperazin-1-yl)phenyl)-amino)-7H-pyrrolo[2,3-d]pyrimidin-7-yl)pyridin-2-yl)imino)dimethyl-λ^6-sulfanone], the pIC50 at WEE1 kinase is 9.10; in experiment [1], 7.08.

On to `CS(C)(=O)=Nc1cccc(-n2c(C3CC3)cc3cnc(Nc4ccc(N5CC6CCC(C5)N6)c(F)c4)nc32)n1` [Example 101, ((6-(2-((4-(3,8-diazabicyclo[3.2.1]octan-3-yl)-3-fluorophenyl)amino)-6-cyclopropyl-7H-pyrrolo[2,3-d]pyrimidin-7-yl)pyridin-2-yl)imino)dimethyl-λ^6-sulfanone], for which the pIC50 on WEE1 kinase is 9.15; in experiment [1] (Homo sapiens, 72 h), 7.18.

On to `CN(C)CCN1CCN(c2ccc(Nc3ncc4cc(C5CC5)n(-c5cccc(N=S(C)(C)=O)n5)c4n3)cc2)CC1` [Example 108], for which the pIC50 on WEE1 kinase is 9.21; in experiment [1] (Homo sapiens, 72 h), 7.15.

Turning to `CCCc1cc2cnc(Nc3ccc(N4CCN(C)CC4)cn3)nc2n1-c1cccc(N=S(C)(C)=O)n1` [Example 110, ((6-(6-propyl-2-((5-(4-methylpiperazin-1-yl)pyridin-2-yl)amino)-7H-pyrrolo[2,3-d]pyrimidin-7-yl)pyridin-2-yl)imino)dimethyl-λ^6-sulfanone], the pIC50 is 9.16 at WEE1 kinase and 7.06 in experiment [1].

In the case of `CCCc1cc2cnc(Nc3ccc(N4CCC5(CCN(C)CC5)CC4)cc3)nc2n1-c1cccc(N=S(C)(C)=O)n1` [Example 123, ((6-(6-propyl-2-((4-(9-methyl-3,9-diazaspiro[5.5]undecan-3-yl)phenyl)amino)-7H-pyrrolo[2,3-d]pyrimidin-7-yl)pyridin-2-yl)imino)dimethyl-λ^6-sulfanone], the results for the pIC50 (at WEE1 kinase; in experiment [1]) were 9.52 and 7.36, respectively.

For the molecule `CN1CCC2(CC1)CCN(c1ccc(Nc3ncc4c(F)c(C5CC5)n(-c5cccc(N=S(C)(C)=O)n5)c4n3)cc1)CC2` [Example 126, ((6-(6-cyclopropyl-5-fluoro-2-((4-(9-methyl-3,9-diazaspiro(5.5)undecan-3-yl)phenyl)amino)-7H-pyrrolo[2,3-d]pyrimidin-7-yl)pyridin-2-yl)imino)dimethyl-λ^6-sulfanone], the pIC50 at WEE1 kinase was 9.32; in experiment [1] (Homo sapiens, 72 h), 7.28.

For `COC(=O)CN1CCN(c2ccc(Nc3ncc4cc(C5CC5)n(-c5cccc(N=S(C)(C)=O)n5)c4n3)cc2)CC1` [Example 127], the negative-log IC50 (pIC50) at WEE1 kinase is 9.18; in experiment [1] (Homo sapiens, 72 h), 7.15.

For `C=C(C)c1cc2cnc(Nc3ccc(N4CCN(C)CC4)cc3)nc2n1-c1cccc(N=S(C)(C)=O)n1` [Example 135, dimethyl((6-(2-((4-(4-methylpiperazin-1-yl)phenyl)amino)-6-(prop-1-en-2-yl)-7H-pyrrolo[2,3-d]pyrimidin-7-yl)pyridin-2-yl)imino)-λ^6-sulfanone], the pIC50 at WEE1 kinase is 9.17; in experiment [1] (Homo sapiens, 72 h), 7.13.

As for `CCCc1cc2cnc(Nc3ccc(N4CCC(N5CCN(C)CC5)CC4)cc3)nc2n1-c1cccc(N=S(C)(C)=O)n1` [Example 136, dimethyl((6-(2-((4-(4-(4-methylpiperazin-1-yl)piperidin-1-yl)phenyl)amino)-6-propyl-7H-pyrrolo[2,3-d]pyrimidin-7-yl)pyridin-2-yl)imino)-λ^6-sulfanone], the pIC50 at WEE1 kinase was 9.05; in experiment [1] (Homo sapiens, 72 h) it was 7.06.

As for `Cc1cc2cnc(Nc3ccc(N4CCC5(CCN(C)CC5)CC4)cc3)nc2n1-c1cccc(N=S(C)(C)=O)n1` [Example 139, ((6-(6-methyl-2-((4-(9-methyl-3,9-diazaspiro[5.5]undecan-3-yl)phenyl)amino)-7H-pyrrolo[2,3-d]pyrimidin-7-yl)pyridin-2-yl)imino)dimethyl-λ^6-sulfanone], the figures for the pIC50 (at WEE1 kinase; in experiment [1]) were 9.16 and 7.19, respectively.

For the origin of these results see US20220194960A1, “WEE1 INHIBITOR AND PREPARATION AND USE THEREOF” (SHOUYAO HOLDINGS (BEIJING) CO., LTD., priority 2019, published 2022).
